# Test results as given in publication PMC11477209, “Toxicological Evaluation of Kaempferol and Linearolactone as Treatments for Amoebic Liver Abscess Development in Mesocricetus auratus” (International Journal of Molecular Sciences, 2024).
# Like-named read-outs stand apart in the source and are kept apart here.
# What was measured:
# CHO-K1 cells = assay: MTT cytotoxicity assay; format: cell-based, Chinese hamster; conditions: for IC50: Cricetulus griseus, read-out: IC50 CHO-K1
# BEAS-2B cells = assay: MTT cytotoxicity assay; format: cell-based, human; conditions: 24 h; for IC50: Homo sapiens, BEAS-2B
# [1] = system: E. histolytica trophozoites; assay: Cell morphology by confocal microscopy (actin); format: cell-based, Entamoeba histolytica; conditions: phalloidin-rhodamine, treatment with IC50
# Description: Then, the culture medium was removed, and the adhered cells were fixed with 4% paraformaldehyde for 1 h at 37 °C. The samples were washed three times with 1× PBS and incubated with 1:50 phalloidin–rhodamine (R415, Invitrogen; Carlsbad, CA, USA) for 1 h at 37 °C. Finally, the cells were washed, mounted with VectaShield/DAPI medium (Vector Laboratories; Newark, CA, USA), and observed with a confocal microscope (LSM-700, Zeiss; Oberkochen, Germany).
# [2] = system: E. histolytica trophozoites (amoebic liver abscess); assay: Amoebic liver abscess (ALA) model, antiparasitic protocol; format: in vivo, Mesocricetus auratus; conditions: for Edges / Leukocyte infiltrate / Liquid / Morphology: ALA characteristics; for ALA Volume: MRI; for ALA Volume / ALA Weight: i.p. 4 days; for ALA Weight: KP 5, LL 10, MTZ 10 mg/kg/day
# Description: M. auratus was used as an animal model because the hamster is naturally susceptible to infection by E. histolytica and can develop amoebic colitis or extraintestinal complications such as an ALA [71]. In this context, the hamster can be used to search for new alternative therapeutic agents against amoebiasis. The hamsters were acquired from Charles River Laboratories Inc. (Wilmington, MA, USA) in 2017 by Centro de Investigación y de Estudios Avanzados del Instituto Politécnico Nacional ([…]-IPN). […] Male hamsters (sexually mature and homozygous) weighing 95 ± 5 g and ≈10 weeks old were selected for the experiments. They were maintained in aseptic conditions at 25 ± 1 °C, 50 ± 3% humidity, a 12 h photoperiod, and ad libitum access to a standard diet (LabDiet; Richmond, IN, USA) and water (Figure 5A). The hamsters were housed in polycarbonate boxes (five per box), with an American Iron and Steel Institute (AISI) lid and wood shavings as bedding, in a controlled room of the Animal Production and Experimentation Unit (UPEAL) from […]-IPN (Figure 5A). Additionally, the health state of the hamsters and their adaptation to the new laboratory conditions were evaluated for 15 days to decrease their stress and anxiety levels. This study was carried out according to the Official Mexican Regulations (NOM-062-ZOO-1999) and NC3Rs ARRIVE [60, 72]. The protocol was approved by the Institutional Animal Care and Use Committee (Reg. No. 0183-16). Finally, the hamsters were not subjected to any previous experimental procedure or any additional treatment before beginning the experimental procedures (see File S1, NC3Rs ARRIVE Guidelines Checklist). Compounds that are prohibited and/or not recommended for use in animals by the American Veterinary Medical Association (Guidelines for the Euthanasia of Animals) were not used.
# These experiments were performed with three independent biological replicates. For each replicate, twenty-five hamsters were randomly distributed (simple type) into five experimental groups (five animals per group). The sample size was determined based on the Organization for Economic Cooperation and Development (OECD) recommendations that establish the minimum number of individuals required for the tests so as not to sacrifice animals unnecessarily. Laparotomy was performed in aseptic conditions by using depilation, iodine solution, as well as sterile field cloths. Subsequently, an intra-hepatic puncture was made to deliver 1.5 × 10^6 virulent E. histolytica trophozoites in 100 μL of 1× PBS into the left hepatic lobe for ALA induction (Figure 5A-3). The injection site was immediately covered by applying a gel foam pad to maintain hemostasis. The abdominal layers were sutured discontinuously by single vertical stitches using Vicryl synthetic absorbable suture with a triangular pointed half circle needle. Irregular edges or folds in the surgical wound were eliminated to avoid tissue devitalization or possible infections. The development of a hepatic ALA was monitored for 4 days (Figure 5A-4).
# (Figure 5B). The compounds were administered by the i.p. route because the peritoneal cavity presents rapid fluid absorption into the bloodstream, and initial biotransformation by the gastrointestinal tract is avoided. […] The hamsters were evaluated 24 h post-treatment to detect any signs of discomfort/pain or toxicity. The humane endpoint criteria used in this study were >20% body weight loss overnight, cachexia, recumbence, lethargy, respiratory distress, inability to reach food and water, lack of grooming, and ulceration around the surgical site, among others. Additionally, the weight of hamsters was determined at the beginning and end of the experiment with an electronic bascule (CS200, Ohaus; Parsippany, NJ, USA), and the ALA volume was calculated based on imaging (Figure 5B-1). […]
# [3] = Paraclinical analysis (serum biochemistry, hematic biometry) in ALA hamsters; format: in vivo, Mesocricetus auratus
# Description: Serum was obtained by centrifugation at 3500 rpm and frozen at −70 °C until analysis. Hematic biometry was performed in a hematology autoanalyzer system (BC-2300, Mindray; Shenzhen, China), and biochemical parameters were made on an automatic medical system (Prestige 24i, Tokyo Boeki; Kanagawa, Japan).
# [4] = in vivo
# Description: After blood samples were obtained, the hamsters were sacrificed with a lethal dose of sodium pentobarbital, followed by a cervical fracture. They were mounted on a dissecting board for the necropsy. A complete mid-laparotomy was performed to remove the lungs, spleen, heart, liver, and kidneys. An excisional biopsy was performed to recover the ALA lesions for morphometric analysis. The organs and ALA lesions were rinsed with 1× PBS, weighed, and adherent tissue was removed. […] Later, the inclusion protocol was performed to obtain histological sections (3 μm thick) with a rotatory microtome (RM2125-RTS, Leica; Wetzlar, Germany). Tissue slices were stained with hematoxylin-eosin (Merck; Rahway, NJ, USA), mounted on coverslips with Entellan^TM-New (Merck; Rahway, NJ, USA), and observed with optical microscopy (Eclipse 80i, Nikon; Tokio, Japan).
# [5] = system: E. histolytica trophozoites (virulent HM-1 strain)
# [6] = for Survival rate: ALA hamsters, i.p. 4 days; for Toxicity signs: in vivo, ip
# [7] = system: E. histolytica trophozoites; conditions: 48 h; ref [10]; read-out: IC50 E. histolytica trophozoites; cited from earlier work
# [8] = system: E. histolytica trophozoites (virulent HM-1 strain); assay: microbe, parasite or virus in culture; conditions: Entamoeba histolytica, 48 h, read-out: IC50 HM-1, 48 h, flow cytometry
# [9] = Chinese hamster (CHO-K1) and human (BEAS-2B)
# [10] = blood, ALA hamsters, i.p. 4 days
# [11] = 48 h, MTZ 0.16, KP 31.6, LL 15.6 μg/mL
structure (smiles),measurement,setting,value
O=c1c(O)c(-c2ccc(O)cc2)oc2cc(O)cc(O)c12 [KP],biological activity symbol on IC50 CHO-K1,"CHO-K1 cells; 24 h, MTT",+/-
same,IC50,"CHO-K1 cells; CHO-K1, 24 h",70 µg/mL
same,biological activity symbol on IC50 BEAS-2B,BEAS-2B cells,+/-
same,IC50,BEAS-2B cells,100 µg/mL
same,actin cytoskeleton alteration,[1],disorganized actin microfilaments
same,Edges,[2],Irregular and poorly defined
same,Leukocyte infiltrate,[2],+/−
same,Liquid,[2],+/−
same,Morphology,[2],Ovoid
same,ALA Volume,[2],738 ± 150 * mm^3
same,MRI T1 signal of ALA,[2],Intermediate intensity
same,MRI T2 signal of ALA,[2],hypointense
same,ALA Weight,[2],0.86 ± 0.15 g
same,Erythrocytes,[3]; [10],6.8 ± 0.3 x10 6/mm3
same,Band neutrophils,[3]; in vivo,2 ± 1%
same,Basophils,[3]; in vivo,0%
same,Eosinophils,[3]; in vivo,0%
same,Immature forms,[3]; in vivo,0%
same,Lymphocytes,[3]; in vivo,39 ± 12%
same,Monocytes,[3]; in vivo,0%
same,Segmented neutrophils,[3]; in vivo,60 ± 11%
same,ALT (GPT),"[3]; in vivo, ip",60 ± 10 U/L
same,Albumin,"[3]; in vivo, ip",1.7 ± 0.2 g/dL
same,Alkaline phosphatase,"[3]; in vivo, ip",349 ± 38 U/L
same,Cholesterol,"[3]; in vivo, ip",164 ± 43 mg/dL
same,Creatinine,"[3]; in vivo, ip",0.45 ± 0.1 mg/dL
same,Direct bilirubin,"[3]; in vivo, ip",0.37 ± 0.07 mg/dL
same,GGT,"[3]; in vivo, ip",9.3 ± 5.5 U/L
same,Glucose,"[3]; in vivo, ip",152 ± 11 mg/dL
same,Hematocrit,"[3]; in vivo, ip",48.8 ± 0.5%
same,Hemoglobin,"[3]; in vivo, ip",16.5 ± 0.2 g/dL
same,Indirect bilirubin,"[3]; in vivo, ip",0.01 ± 0.0 mg/dL
same,MCH,"[3]; in vivo, ip",24 ± 0.7 pg
same,MCHC,"[3]; in vivo, ip",33 ± 0.1 g/dL
same,MCV,"[3]; in vivo, ip",72 ± 2.3 fL
same,MPV,"[3]; in vivo, ip",7.25 ± 0.5 fL
same,PCT,"[3]; in vivo, ip",0.4 ± 0.2%
same,PDW,"[3]; in vivo, ip",9.15 ± 1.2 fL
same,Platelets,"[3]; in vivo, ip",537 ± 266 x106/μL
same,RDW-SD,"[3]; in vivo, ip",42.4 ± 0.3 fL
same,Total bilirubin,"[3]; in vivo, ip",0.38 ± 0.07 mg/dL
same,Total protein,"[3]; in vivo, ip",5.2 ± 0.2 g/dL
same,Triglycerides,"[3]; in vivo, ip",475 ± 28 mg/dL
same,Urea,"[3]; in vivo, ip",41.6 ± 4 mg/dL
same,leukocytes (mild leukocytosis),"[3]; in vivo, ip","14,800 ± 700 /mm^3"
same,Heart largest diameter,[4],1.06 ± 0.08 cm
same,Heart weight,[4],0.38 ± 0.1 g
same,Kidneys largest diameter,[4],1.2 ± 0.1 cm
same,Kidneys weight,[4],0.49 ± 0.04 g
same,Liver largest diameter,[4],3.88 ± 0.11 cm
same,Liver weight,[4],5.9 ± 0.8 g
same,Lungs largest diameter,[4],2.5 ± 0.05 cm
same,Lungs weight,[4],0.74 ± 0.06 g
same,Spleen largest diameter,[4],3.7 ± 0.1 cm
same,Spleen weight,[4],0.36 ± 0.05 g
same,biological activity symbol on IC50 HM-1,[5]; 48 h,+
same,apoptotic trophozoites,[5]; [11],8.2%
same,necrotic trophozoites,[5]; [11],45.2%
same,decrease of size and granularity of the cell population,"[5]; 48 h, MTZ 0.16, KP 31.6, LL 15.6 μg/mL, vs Vh",55%
same,Survival rate,[6],100%
same,Toxicity signs,[6],None
same,IC50,[7],27.7 µM
same,IC50,[8],31.6 µg/mL
"Cc1ncc([N+](=O)[O-])n1CCO [MTZ, metronidazole, reference compound]",biological activity symbol on IC50 CHO-K1,"CHO-K1 cells; 24 h, MTT",-
same,IC50,"CHO-K1 cells; CHO-K1, 24 h, MTT",500 µg/mL
same,biological activity symbol on IC50 BEAS-2B,BEAS-2B cells,-
same,IC50,BEAS-2B cells,400 µg/mL
same,Edges,[2],Regular and well defined
same,Leukocyte infiltrate,[2],−
same,Liquid,[2],−
same,Morphology,[2],Round
same,ALA Volume,[2],528 ± 183.5 * mm^3
same,MRI T1 signal of ALA,[2],Intermediate intensity
same,MRI T2 signal of ALA,[2],hypointense
same,ALA Weight,[2],0.33 ± 0.32 g
same,MPV,[3]; [10],8 ± 0.1 fL
same,TB/AL ratio,[3]; drug toxicity ratio,0.38 ± 0.16
same,neutrophil/lymphocyte ratio,[3]; hematic ratio,1.15 ± 0.7
same,Band neutrophils,[3]; in vivo,0%
same,Basophils,[3]; in vivo,0%
same,Eosinophils,[3]; in vivo,0%
same,Immature forms,[3]; in vivo,0%
same,Lymphocytes,[3]; in vivo,50 ± 13%
same,Monocytes,[3]; in vivo,0%
same,Segmented neutrophils,[3]; in vivo,51 ± 13%
same,ALT (GPT),"[3]; in vivo, ip",135 ± 23 U/L
same,AST (GOT),"[3]; in vivo, ip",81 ± 24 U/L
same,Albumin,"[3]; in vivo, ip",1.9 ± 0.3 g/dL
same,Alkaline phosphatase,"[3]; in vivo, ip",230 ± 11 U/L
same,Cholesterol,"[3]; in vivo, ip",116 ± 9.1 mg/dL
same,Creatinine,"[3]; in vivo, ip",1.01 ± 0.2 mg/dL
same,Direct bilirubin,"[3]; in vivo, ip",0.5 ± 0.1 mg/dL
same,Erythrocytes,"[3]; in vivo, ip",3.7 ± 0.2 x10 6/mm3
same,GGT,"[3]; in vivo, ip",5.5 ± 2.3 U/L
same,Glucose,"[3]; in vivo, ip",161 ± 21 mg/dL
same,Hematocrit,"[3]; in vivo, ip",35 ± 2.6%
same,Hemoglobin,"[3]; in vivo, ip",14. 7 ± 1.2 g/dL
same,Indirect bilirubin,"[3]; in vivo, ip",0.20 ± 0.1 mg/dL
same,Leukocytes,"[3]; in vivo, ip",7.7 ± 2.6 x100/mm3
same,MCH,"[3]; in vivo, ip",40 ± 1.6 pg
same,MCHC,"[3]; in vivo, ip",43 ± 1.4 g/dL
same,MCV,"[3]; in vivo, ip",94 ± 2.2 fL
same,PCT,"[3]; in vivo, ip",0.4 ± 0.1%
same,PDW,"[3]; in vivo, ip",11 ± 0.4 fL
same,Platelets,"[3]; in vivo, ip",536 ± 148 x106/μL
same,RDW-CV,"[3]; in vivo, ip",25.8 ± 3.3 fL
same,RDW-SD,"[3]; in vivo, ip",111 ± 12 fL
same,Total bilirubin,"[3]; in vivo, ip",0.7 ± 0.3 mg/dL
same,Total protein,"[3]; in vivo, ip",5.3 ± 0.9 g/dL
same,Triglycerides,"[3]; in vivo, ip",280 ± 75 mg/dL
same,Urea,"[3]; in vivo, ip",41.2 ± 1.4 mg/dL
same,BUN/CR ratio,[3]; kidney damage ratio,19.6 ± 3.8
same,urea/CR ratio,[3]; kidney damage ratio,42 ± 8.15
same,AST/ALT ratio (De Ritis ratio),[3]; liver injury ratio,< 1
same,Heart largest diameter,[4],1.08 ± 0.04 cm
same,Heart weight,[4],0.38 ± 0.1 g
same,Kidneys largest diameter,[4],1.3 ± 0.08 cm
same,Kidneys weight,[4],0.52 ± 0.0 g
same,Liver largest diameter,[4],4 ± 0.15 cm
same,Liver weight,[4],5.76 ± 1.4 g
same,Lungs largest diameter,[4],2.5 ± 0.2 cm
same,Lungs weight,[4],0.68 ± 0.05 g
same,Spleen largest diameter,[4],3.3 ± 0.3 cm
same,Spleen weight,[4],0.2 ± 0.05 g
same,apoptotic trophozoites,[5],2%
same,decrease of size and granularity of the cell population,[5],52%
same,necrotic trophozoites,[5],62.2%
same,biological activity symbol on IC50 HM-1,[5]; 48 h,++
same,LD50 (Theoretical),[9],1026 mg/kg
same,Survival rate,[6],100%
same,Toxicity signs,[6],None
same,IC50,[8],0.16 µg/mL
